This is an account of results in ChEMBL document CHEMBL4219241, “Design, synthesis, and structure-activity relationships of novel imidazo[4,5-c]pyridine derivatives as potent non-nucleoside inhibitors of hepatitis C virus NS5B” (Bioorg Med Chem, 2018).

The target of data set [1] is T1, RNA-directed RNA polymerase (Hepacivirus hominis, UniProt O39930). In words: Inhibition of Hepatitis C virus genotype 1b NS5B RNA-dependent-RNA polymerase. Details: species or system Hepatitis C virus subtype 1b; call rule not given here.
The target of data set [2] is T1, RNA-directed RNA polymerase. Briefly: Inhibition of Hepatitis C virus genotype 1b NS5B RNA-dependent-RNA polymerase assessed as reduction in viral replication after 72 hrs by indirect immunofluorescence assay. On the set-up: species or system Hepatitis C virus subtype 1b.
Data set [3] addresses RNA-directed RNA polymerase (Hepacivirus hominis) (UniProt O39930). Briefly: Potency index, ratio of sofosbuvir EC50 to test compound EC50 for inhibition of Hepatitis C virus genotype 1b NS5B RNA-dependent-RNA polymerase assessed as reduction in viral replication. To be noted: Hepatitis C virus subtype 1b.
A short description of data set [4]: MRT (0 to infinity) in Sprague-Dawley rat at 35 mg/kg, po administered via gavage by UPLC-MS analysis. The data set is classed as ADME, organism-based. To be noted: in vivo.
Data set [5] can be described thus: AUC (0 to infinity) in Sprague-Dawley rat at 35 mg/kg, po administered via gavage by UPLC-MS analysis. The class given is ADME, organism-based. Details: dose 35 mg/kg, route oral, time infinity. The conditions noted are these: in vivo.
Data set [6] is described as follows: Apparent clearance during terminal phase in Sprague-Dawley rat at 35 mg/kg, po administered via gavage by UPLC-MS analysis. The class given is ADME, organism-based. The conditions noted are these: in vivo, read-out: CLz/F (converted).
Data set [7] in a line: Apparent volume of distribution during terminal phase in Sprague-Dawley rat at 35 mg/kg, po administered via gavage by UPLC-MS analysis. The data set is classed as ADME, organism-based. To be noted: in vivo, read-out: Vz/F.
The nature of data set [8]: Terminal half life in Sprague-Dawley rat at 35 mg/kg, po administered via gavage by UPLC-MS analysis. To be noted: in vivo, read-out: beta t1/2 (converted). The class given is ADME, organism-based.
Data set [9] is described as follows: Cmax in Sprague-Dawley rat at 35 mg/kg, po administered via gavage by UPLC-MS analysis. Details: dose 35 mg/kg, route oral. The class given is ADME, organism-based. The conditions noted are these: in vivo.
Data set [10] is described as follows: Tmax in Sprague-Dawley rat at 35 mg/kg, po administered via gavage by UPLC-MS analysis. The data set is classed as ADME, organism-based. The conditions noted are these: in vivo.

pEC50: −log10 of the molar value.

T1 sequence (O39930 whole entry): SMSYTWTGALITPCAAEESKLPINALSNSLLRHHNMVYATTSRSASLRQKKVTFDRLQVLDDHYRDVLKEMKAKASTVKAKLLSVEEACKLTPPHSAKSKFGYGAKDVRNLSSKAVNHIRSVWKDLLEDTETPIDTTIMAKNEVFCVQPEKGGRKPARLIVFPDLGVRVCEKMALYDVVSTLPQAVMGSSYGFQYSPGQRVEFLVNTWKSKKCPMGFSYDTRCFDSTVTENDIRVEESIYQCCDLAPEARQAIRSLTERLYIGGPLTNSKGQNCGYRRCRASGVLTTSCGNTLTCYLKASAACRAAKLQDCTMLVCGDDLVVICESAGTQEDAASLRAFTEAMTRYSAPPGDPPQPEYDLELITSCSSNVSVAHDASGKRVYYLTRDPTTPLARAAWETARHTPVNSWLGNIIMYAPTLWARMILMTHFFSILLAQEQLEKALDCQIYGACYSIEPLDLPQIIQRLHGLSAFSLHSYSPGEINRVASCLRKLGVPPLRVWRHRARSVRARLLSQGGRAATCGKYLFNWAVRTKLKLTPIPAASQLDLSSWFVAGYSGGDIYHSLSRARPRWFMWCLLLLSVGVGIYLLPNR
Chain of RNA-directed RNA polymerase (Hepacivirus hominis) (O39930 1-591): as the sequence (O39930 whole entry) above

For `Fc1ccccc1-c1nc2ccn(Cc3ccc(-c4ccc(C(F)(F)F)cc4C(F)(F)F)nn3)cc-2n1` [TEGOBUVIR], the pEC50 (as a rule, −log10 of the EC50, conventionally taken in molar units) in data set [1] is 8.54.

With `Fc1ccccc1-c1nc2ccn(Cc3nc4ccccc4n3-c3cccc(C(F)(F)F)c3)cc-2n1`, the EC50 result in data set [2] is reported as “Not Active”.

For the compound `Fc1ccccc1-c1nc2ccn(Cc3cn(-c4cc(C(F)(F)F)cc(C(F)(F)F)c4)nn3)cc-2n1`, in data set [2], the EC50 result is “Not Active”.

As to `Fc1ccccc1-c1nc2ccn(Cc3nc4ccccc4n3-c3ccccc3)cc-2n1`, the EC50 result in data set [2] was “Not Active”.

Turning to `Cc1cc(C)n2cc(Cn3ccc4nc(-c5ccccc5F)nc-4c3)nc2n1`, the EC50 entry in data set [2] is on record as “Not Active”.

Take `Fc1ccccc1-c1nc2ccn(Cc3cn(-c4ccccc4)nn3)cc-2n1`: the Ratio EC50 in data set [3] was 3.

Turning to `Fc1ccccc1-c1nc2ccn(Cc3cn(Cc4nc5ccccc5n4-c4ccccc4)nn3)cc-2n1`, in [2], the EC50 entry is given as “Not Active”.

As for `COc1ccc(-n2cc(Cn3ccc4nc(-c5ccccc5F)nc-4c3)nn2)cc1`, in data set [4], the MRT inf – broadly, a mean duration of stay, worked out from the concentration-time curve – came out at 2.18 h. In addition, the AUC(0-inf) (usually the area under the concentration-time curve extrapolated to infinity) in data set [5] was determined as 72500 ng·h/mL. For the same compound, the CL/F in [6] is 8.33 mL/min/kg. The Vd/F in [7] stood at 2.12 L/kg. Moreover, the half-life in [8] is 2.88 h. Moreover, in data set [9], the Cmax (as a rule, the highest concentration seen after dosing) amounted to 22300 ng/mL. In [10], the Tmax (usually the time at which the peak concentration occurs) came out at 1.33 h.

Take `Fc1ccccc1-c1nc2ccn(Cc3cn(Cc4nc5ccccc5n4-c4cccc(C(F)(F)F)c4)nn3)cc-2n1`: the EC50 result in data set [2] is given as “Not Active”.

For the compound `Cc1cc(C)n2nc(Cn3ccc4nc(-c5ccccc5F)nc-4c3)nc2n1`, the EC50 entry in data set [2] is on record as “Not Active”.

In the case of `Cc1ccc(-n2c(Cn3ccc4nc(-c5ccccc5F)nc-4c3)nc3ccccc32)cc1`, the EC50 entry in [2] is given as “Not Active”.

For the compound `Fc1ccccc1-c1nc2ccn(Cc3nc4ccccc4n3-c3cccc(Cl)c3)cc-2n1`, the EC50 result in data set [2] is given as “Not Active”.

As to `Fc1ccccc1-c1nc2ccn(Cc3cn4cccnc4n3)cc-2n1`, the EC50 entry in data set [2] is given as “Not Active”.
